Experimental data from patent US12077503B2, “Substituted cyclic amides and their use as herbicides” (FMC CORPORATION, priority 2015, dated 2024).

What was measured:
Experiment in all cases: Test D preemergence
Assay type in all cases: in vivo
Details in all cases: scale 0 to 100
[1] = test system: bromegrass, downy (downy bromegrass, Bromus tectorum)
Description: (§1) Seeds of plant species selected from bluegrass (annual bluegrass, Poa annua), blackgrass (Alopecurus myosuroides), canarygrass (littleseed canarygrass, Phalaris minor), chickweed (common chickweed, Stellaria media), Galium (catchweed bedstraw, Galium aparine), bromegrass, downy (downy bromegrass, Bromus tectorum), field poppy (Papaver rhoeas), field violet (Viola arvensis), foxtail, green (green foxtail, Setaria viridis), deadnettle (henbit deadnettle, Lamium amplexicaule), ryegrass, Italian (Italian ryegrass, Lolium multiflorum), Kochia (Kochia scoparia), lambsquarters (Chenopodium album), oilseed rape (Brassica napus), pigweed (Amaranthus retroflexus), chamomile (scentless chamomile, Matricaria inodora), Russian thistle (Salsola kali), speedwell (bird's-eye speedwell, Veronica persica), barley, spring (spring barley, Hordeum vulgare), wheat, spring (spring wheat, Triticum aestivum), buckwheat, wild (wild buckwheat, Polygonum convolvulus), mustard, wild (wild mustard, Sinapis arvensis), oat, wild (wild oat, Avena fatua), radish, wild (wild radish, Raphanus raphanistrum), windgrass (Apera spica-venti), barley, winter (winter barley Hordeum vulgare), and wheat, winter (winter wheat, Triticum aestivum) were planted into a silt loam soil and treated preemergence with test chemicals formulated in a non-phytotoxic solvent mixture which included a surfactant.
(§2) Treated plants and controls were maintained in a controlled growth environment approximately 21 d after which time all species were compared to controls and visually evaluated. Plant response ratings, summarized in Table D, are based on a scale of 0 to 100 where 0 is no effect and 100 is complete control. A dash (-) response means no test result.

[2] = test system: Galium (catchweed bedstraw, Galium aparine)
Description: as §1, §2

[3] = test system: foxtail, green (green foxtail, Setaria viridis)
Description: as §1, §2

[4] = test system: Russian thistle (Salsola kali)
Description: as §1, §2

[5] = test system: wheat, winter (winter wheat, Triticum aestivum)
Description: as §1, §2

[6] = test system: chamomile (scentless chamomile, Matricaria inodora)
Description: as §1, §2

[7] = test system: field poppy (Papaver rhoeas)
Description: as §1, §2

[8] = test system: blackgrass (Alopecurus myosuroides)
Description: as §1, §2

[9] = test system: wheat, spring (spring wheat, Triticum aestivum)
Description: as §1, §2

[10] = test system: windgrass (Apera spica-venti)
Description: as §1, §2

[11] = test system: oat, wild (wild oat, Avena fatua)
Description: as §1, §2

Kochia (Kochia scoparia) = test system: Kochia (Kochia scoparia)
Description: as §1, §2

[12] = test system: oilseed rape (Brassica napus)
Description: as §1, §2

[13] = test system: ryegrass, Italian (Italian ryegrass, Lolium multiflorum)
Description: as §1, §2

[14] = test system: deadnettle (henbit deadnettle, Lamium amplexicaule)
Description: as §1, §2

[15] = test system: radish, wild (wild radish, Raphanus raphanistrum)
Description: as §1, §2

[16] = test system: pigweed (Amaranthus retroflexus)
Description: as §1, §2

[17] = test system: barley, spring (spring barley, Hordeum vulgare)
Description: as §1, §2

[18] = test system: mustard, wild (wild mustard, Sinapis arvensis)
Description: as §1, §2

[19] = test system: chickweed (common chickweed, Stellaria media)
Description: as §1, §2

[20] = test system: canarygrass (littleseed canarygrass, Phalaris minor)
Description: as §1, §2

[21] = test system: field violet (Viola arvensis)
Description: as §1, §2

## CN1CC(c2ccc(C(F)(F)F)cc2)C(C(=O)Nc2ccccc2S(C)(=O)=O)C1=O (stereo not shown) [Compound 624]
[1]; 31 g ai/ha
  Plant response rating: Bromegrass, Downy: 0
[1]; 62 g ai/ha
  Plant response rating: Bromegrass, Downy: 10
[1]; 125 g ai/ha
  Plant response rating: Bromegrass, Downy: 20
[1]; 250 g ai/ha
  Plant response rating: Bromegrass, Downy: 20
[2]; 31 g ai/ha
  Plant response rating: Galium: 0
[2]; 62 g ai/ha
  Plant response rating: Galium: 0
[2]; 125 g ai/ha
  Plant response rating: Galium: 0
[2]; 250 g ai/ha
  Plant response rating: Galium: 0
[3]; 31 g ai/ha
  Plant response rating: Foxtail, Green: 40
[3]; 62 g ai/ha
  Plant response rating: Foxtail, Green: 50
[3]; 125 g ai/ha
  Plant response rating: Foxtail, Green: 90
[3]; 250 g ai/ha
  Plant response rating: Foxtail, Green: 95
[4]; 31 g ai/ha
  Plant response rating: Russian Thistle: 0
[4]; 62 g ai/ha
  Plant response rating: Russian Thistle: 30
[4]; 125 g ai/ha
  Plant response rating: Russian Thistle: 10
[4]; 250 g ai/ha
  Plant response rating: Russian Thistle: 50
[5]; 31 g ai/ha
  Plant response rating: Wheat, Winter: 0
[5]; 62 g ai/ha
  Plant response rating: Wheat, Winter: 0
[5]; 125 g ai/ha
  Plant response rating: Wheat, Winter: 5
[5]; 250 g ai/ha
  Plant response rating: Wheat, Winter: 10
[6]; 31 g ai/ha
  Plant response rating: Chamomile: 0
[6]; 62 g ai/ha
  Plant response rating: Chamomile: 95
[6]; 125 g ai/ha
  Plant response rating: Chamomile: 90
[6]; 250 g ai/ha
  Plant response rating: Chamomile: 100
[7]; 31 g ai/ha
  Plant response rating: Field Poppy: 15
[7]; 62 g ai/ha
  Plant response rating: Field Poppy: 25
[7]; 125 g ai/ha
  Plant response rating: Field Poppy: 100
[7]; 250 g ai/ha
  Plant response rating: Field Poppy: 100
[8]; 31 g ai/ha
  Plant response rating: Blackgrass: 5
[8]; 62 g ai/ha
  Plant response rating: Blackgrass: 5
[8]; 125 g ai/ha
  Plant response rating: Blackgrass: 15
[8]; 250 g ai/ha
  Plant response rating: Blackgrass: 85
[9]; 31 g ai/ha
  Plant response rating: Wheat, Spring: 5
[9]; 62 g ai/ha
  Plant response rating: Wheat, Spring: 10
[9]; 125 g ai/ha
  Plant response rating: Wheat, Spring: 15
[9]; 250 g ai/ha
  Plant response rating: Wheat, Spring: 40
[10]; 31 g ai/ha
  Plant response rating: Windgrass: 15
[10]; 62 g ai/ha
  Plant response rating: Windgrass: 25
[10]; 125 g ai/ha
  Plant response rating: Windgrass: 85
[10]; 250 g ai/ha
  Plant response rating: Windgrass: 95
[11]; 31 g ai/ha
  Plant response rating: Oat, Wild: 0
[11]; 62 g ai/ha
  Plant response rating: Oat, Wild: 5
[11]; 125 g ai/ha
  Plant response rating: Oat, Wild: 15
[11]; 250 g ai/ha
  Plant response rating: Oat, Wild: 35
Kochia (Kochia scoparia); 31 g ai/ha
  Plant response rating: Kochia: 0
Kochia (Kochia scoparia); 62 g ai/ha
  Plant response rating: Kochia: 5
Kochia (Kochia scoparia); 125 g ai/ha
  Plant response rating: Kochia: 15
Kochia (Kochia scoparia); 250 g ai/ha
  Plant response rating: Kochia: 85
[12]; 31 g ai/ha
  Plant response rating: Oilseed Rape: 0
[12]; 62 g ai/ha
  Plant response rating: Oilseed Rape: 25
[12]; 125 g ai/ha
  Plant response rating: Oilseed Rape: 35
[12]; 250 g ai/ha
  Plant response rating: Oilseed Rape: 65
[13]; 31 g ai/ha
  Plant response rating: Ryegrass, Italian: 0
[13]; 62 g ai/ha
  Plant response rating: Ryegrass, Italian: 0
[13]; 125 g ai/ha
  Plant response rating: Ryegrass, Italian: 25
[13]; 250 g ai/ha
  Plant response rating: Ryegrass, Italian: 25
[14]; 31 g ai/ha
  Plant response rating: Deadnettle: 0
[14]; 62 g ai/ha
  Plant response rating: Deadnettle: 0
[14]; 125 g ai/ha
  Plant response rating: Deadnettle: 25
[14]; 250 g ai/ha
  Plant response rating: Deadnettle: 70
[15]; 31 g ai/ha
  Plant response rating: Radish, Wild: 0
[15]; 125 g ai/ha
  Plant response rating: Radish, Wild: 0
[15]; 250 g ai/ha
  Plant response rating: Radish, Wild: 75
[16]; 31 g ai/ha
  Plant response rating: Pigweed: 35
[16]; 62 g ai/ha
  Plant response rating: Pigweed: 80
[16]; 125 g ai/ha
  Plant response rating: Pigweed: 95
[16]; 250 g ai/ha
  Plant response rating: Pigweed: 98
[17]; 31 g ai/ha
  Plant response rating: Barley, Spring: 0
[17]; 62 g ai/ha
  Plant response rating: Barley, Spring: 0
[17]; 125 g ai/ha
  Plant response rating: Barley, Spring: 5
[17]; 250 g ai/ha
  Plant response rating: Barley, Spring: 40
[18]; 31 g ai/ha
  Plant response rating: Mustard, Wild: 15
[18]; 62 g ai/ha
  Plant response rating: Mustard, Wild: 30
[18]; 250 g ai/ha
  Plant response rating: Mustard, Wild: 70
[19]; 31 g ai/ha
  Plant response rating: Chickweed: 15
[19]; 125 g ai/ha
  Plant response rating: Chickweed: 60
[19]; 250 g ai/ha
  Plant response rating: Chickweed: 85
[20]; 31 g ai/ha
  Plant response rating: Canarygrass: 0
[20]; 62 g ai/ha
  Plant response rating: Canarygrass: 15
[20]; 125 g ai/ha
  Plant response rating: Canarygrass: 25
[20]; 250 g ai/ha
  Plant response rating: Canarygrass: 45
[21]; 31 g ai/ha
  Plant response rating: Field Violet: 10
[21]; 62 g ai/ha
  Plant response rating: Field Violet: 10
[21]; 125 g ai/ha
  Plant response rating: Field Violet: 10
[21]; 250 g ai/ha
  Plant response rating: Field Violet: 10
